Assay: mn = molality of the nth substance listed, in mol/kg
Conditions: Liquid; for speed of sound: Pulse-echo method

[Na+].[O-][Cl+3]([O-])([O-])[O-] [sodium perchlorate] + CO
Conditions | mass density, 283.15 K [kg/m3] | mass density, 288.15 K [kg/m3] | mass density, 293.15 K [kg/m3] | mass density, 298.15 K [kg/m3] | mass density, 303.15 K [kg/m3] | mass density, 308.15 K [kg/m3] | mass density, 313.15 K [kg/m3] | speed of sound, 298.15 K [m/s]
m1 = 0.06243 | 805.671 | 800.986 | 796.296 | 791.593 | 786.871 | 782.134 | 777.365 | 1106.7
m1 = 0.0815 | 807.203 | 802.517 | 797.826 | 793.122 | 788.409 | 783.67 | 778.903 | 1107.7
m1 = 0.1008 | 808.744 | 804.058 | 799.365 | 794.669 | 789.952 | 785.213 | 780.447 | 1108.9
m1 = 0.1221 | 810.429 | 805.746 | 801.058 | 796.356 | 791.635 | 786.904 | 782.14 | 1110.1
m1 = 0.1416 | 811.984 | 807.3 | 802.609 | 797.903 | 793.191 | 788.455 | 783.694 | 1111.2
m1 = 0.1625 | 813.649 | 808.965 | 804.274 | 799.57 | 794.858 | 790.121 | 785.36 | 1112.4
m1 = 0.2036 | 816.875 | 812.189 | 807.5 | 802.798 | 798.077 | 793.334 | 788.581 | 1115.1
m1 = 0.2459 | 820.175 | 815.49 | 810.8 | 806.099 | 801.382 | 796.642 | 791.885 | 1117
m1 = 0.2865 | 823.32 | 818.628 | 813.937 | 809.237 | 804.52 | 799.783 | 795.021 | 1119
m1 = 0.3276 | 826.533 | 821.841 | 817.143 | 812.442 | 807.725 | 802.987 | 798.225 | 1121.3
m1 = 0.3701 | 829.792 | 825.099 | 820.402 | 815.691 | 810.974 | 806.236 | 801.475 | 1123.6
m1 = 0.412 | 832.991 | 828.296 | 823.6 | 818.891 | 814.168 | 809.417 | 804.668 | 1125.5
